Experiment: refractive index (other wavelength) (dimensionless); xn = mol fraction of the nth substance listed
Conditions: 101 kPa, Liquid, Standard Abbe refractometry

CC(C)OC(C)C [diisopropyl ether] + CO
refractive index
Conditions | Wavelength=40.47 nm | Wavelength=435.8 nm | Wavelength=486.1 nm | Wavelength=546.1 nm | Wavelength=587.6 nm | Wavelength=589.3 nm | Wavelength=632.8 nm | Wavelength=644 nm | Wavelength=706.5 nm
293.15 K, x2 = 0 | 1.37888 | 1.37585 | 1.37241 | 1.36955 | 1.36806 | 1.36801 | 1.36674 | 1.36644 | 1.36501
293.15 K, x2 = 0.0423 | 1.37892 | 1.37589 | 1.37246 | 1.3696 | 1.36811 | 1.36806 | 1.36678 | 1.36648 | 1.36504
293.15 K, x2 = 0.0424 | 1.37884 | 1.37583 | 1.37238 | 1.36953 | 1.36803 | 1.36798 | 1.3667 | 1.3664 | 1.36476
293.15 K, x2 = 0.082 | 1.37887 | 1.37585 | 1.37242 | 1.36956 | 1.36807 | 1.36802 | 1.36674 | 1.36644 | 1.365
293.15 K, x2 = 0.0822 | 1.37872 | 1.37569 | 1.37228 | 1.36942 | 1.36795 | 1.36789 | 1.36663 | 1.36633 | 1.36487
293.15 K, x2 = 0.1171 | 1.37858 | 1.37556 | 1.37214 | 1.3693 | 1.36783 | 1.36777 | 1.36649 | 1.36619 | 1.36476
293.15 K, x2 = 0.1271 | 1.37862 | 1.3756 | 1.37217 | 1.36933 | 1.36784 | 1.36779 | 1.36651 | 1.36622 | 1.36479
293.15 K, x2 = 0.1827 | 1.37814 | 1.37514 | 1.37173 | 1.36889 | 1.36741 | 1.36736 | 1.36608 | 1.36579 | 1.36436
293.15 K, x2 = 0.2162 | 1.37791 | 1.37492 | 1.37149 | 1.36867 | 1.36719 | 1.36713 | 1.36585 | 1.36556 | 1.36414
293.15 K, x2 = 0.251 | 1.37812 | 1.37513 | 1.37172 | 1.36888 | 1.36741 | 1.36735 | 1.36609 | 1.36579 | 1.36436
293.15 K, x2 = 0.3298 | 1.37709 | 1.37411 | 1.37071 | 1.36792 | 1.36645 | 1.3664 | 1.36512 | 1.36482 | 1.3634
293.15 K, x2 = 0.3577 | 1.37556 | 1.37264 | 1.36925 | 1.36647 | 1.365 | 1.36494 | 1.36367 | 1.36338 | 1.36197
293.15 K, x2 = 0.4497 | 1.37463 | 1.3717 | 1.36834 | 1.36558 | 1.36412 | 1.36407 | 1.3628 | 1.36251 | 1.3611
293.15 K, x2 = 0.4525 | 1.37517 | 1.37223 | 1.36886 | 1.36609 | 1.36462 | 1.36457 | 1.3633 | 1.36301 | 1.3616
293.15 K, x2 = 0.522 | 1.37278 | 1.36987 | 1.36658 | 1.36382 | 1.36239 | 1.36233 | 1.36109 | – | 1.35939
293.15 K, x2 = 0.5543 | 1.37252 | 1.36963 | 1.36633 | 1.36357 | 1.36214 | 1.36209 | 1.36085 | 1.36055 | 1.35915
293.15 K, x2 = 0.609 | 1.36927 | 1.3664 | 1.36316 | 1.3644 | 1.35903 | 1.35897 | 1.35774 | 1.35745 | 1.35606
293.15 K, x2 = 0.6529 | 1.36767 | 1.36484 | 1.36161 | 1.35891 | 1.35751 | 1.35746 | 1.35624 | 1.35595 | 1.35456
293.15 K, x2 = 0.7504 | 1.36362 | 1.36086 | 1.35769 | 1.35503 | 1.35365 | 1.3536 | 1.3524 | 1.35211 | –
293.15 K, x2 = 0.804 | 1.35916 | 1.35647 | 1.35338 | 1.35075 | 1.34938 | 1.34933 | 1.34816 | 1.34788 | 1.34652
293.15 K, x2 = 0.807 | 1.35902 | 1.35632 | 1.35323 | 1.3506 | 1.34924 | 1.34919 | 1.34801 | 1.34773 | 1.34638
293.15 K, x2 = 0.8727 | 1.35351 | 1.35088 | 1.34784 | 1.34528 | 1.34394 | 1.34389 | 1.34273 | 1.34246 | 1.34113
293.15 K, x2 = 0.9233 | 1.34636 | 1.34384 | 1.34087 | 1.33839 | 1.33708 | 1.33703 | 1.3359 | 1.33564 | 1.33435
293.15 K, x2 = 0.9253 | 1.34824 | 1.34571 | 1.34275 | 1.34023 | 1.33891 | 1.33886 | 1.33772 | 1.33746 | 1.33617
293.15 K, x2 = 0.9527 | 1.34496 | 1.34296 | 1.33953 | 1.33705 | 1.33574 | 1.33569 | 1.33457 | 1.33431 | 1.33303
293.15 K, x2 = 0.9773 | 1.34138 | 1.33894 | 1.33601 | 1.33356 | 1.33228 | 1.33223 | 1.33112 | 1.33086 | 1.32963
293.15 K, x2 = 0.989 | 1.34018 | 1.33775 | 1.33487 | 1.33242 | 1.33114 | 1.3311 | 1.33 | 1.32975 | 1.32951
293.15 K, x2 = 0.9964 | 1.33872 | 1.33631 | 1.33342 | 1.33098 | 1.3297 | 1.32965 | 1.32856 | 1.32831 | 1.32708
298.15 K, x2 = 0 | 1.37607 | 1.37308 | 1.36965 | 1.36683 | 1.36535 | – | – | – | –
298.15 K, x2 = 0.0423 | 1.37664 | 1.37305 | 1.36963 | 1.36681 | 1.36534 | – | – | – | –
298.15 K, x2 = 0.0424 | 1.37602 | 1.37303 | 1.36961 | 1.36679 | 1.36531 | – | – | – | –
298.15 K, x2 = 0.082 | 1.37599 | 1.373 | 1.36958 | 1.36677 | 1.36528 | – | – | – | –
298.15 K, x2 = 0.0822 | 1.37598 | 1.373 | 1.36957 | 1.36678 | 1.3653 | – | – | – | –
298.15 K, x2 = 0.1171 | 1.3758 | 1.37283 | 1.36942 | 1.36661 | 1.36514 | – | – | – | –
298.15 K, x2 = 0.1271 | 1.37584 | 1.37286 | 1.36944 | 1.36664 | 1.36515 | – | – | – | –
298.15 K, x2 = 0.1827 | 1.37543 | 1.37246 | 1.36905 | 1.36626 | 1.36478 | – | – | – | –
298.15 K, x2 = 0.2162 | 1.37664 | 1.37305 | 1.36963 | 1.36681 | 1.36534 | – | – | – | –
298.15 K, x2 = 0.251 | 1.37352 | 1.37234 | 1.36895 | 1.36616 | 1.3647 | – | – | – | –
298.15 K, x2 = 0.3298 | 1.37448 | 1.37153 | 1.36815 | 1.36537 | 1.36391 | – | – | – | –
298.15 K, x2 = 0.3577 | 1.37299 | 1.37006 | 1.36672 | 1.36396 | 1.36251 | – | – | – | –
298.15 K, x2 = 0.4497 | 1.37205 | 1.36914 | 1.36584 | 1.36306 | 1.36163 | – | – | – | –
298.15 K, x2 = 0.4525 | 1.37262 | 1.36969 | 1.36637 | 1.3636 | – | – | – | – | –
298.15 K, x2 = 0.522 | 1.37025 | 1.36737 | 1.36409 | 1.36134 | – | – | – | – | –
298.15 K, x2 = 0.5543 | 1.3698 | 1.36692 | 1.36368 | 1.36093 | – | – | – | – | –
298.15 K, x2 = 0.609 | 1.36677 | 1.36396 | – | 1.35803 | – | – | – | – | –
298.15 K, x2 = 0.6529 | 1.36523 | 1.36244 | 1.35923 | 1.35655 | – | – | – | – | –
298.15 K, x2 = 0.7504 | 1.36122 | 1.35846 | 1.35533 | 1.3527 | – | – | – | – | –
298.15 K, x2 = 0.804 | 1.35681 | 1.35412 | 1.35108 | 1.34846 | – | – | – | – | –
298.15 K, x2 = 0.807 | 1.3567 | 1.35401 | 1.35096 | 1.34834 | – | – | – | – | –
298.15 K, x2 = 0.8727 | 1.35132 | 1.34872 | 1.34572 | 1.34316 | – | – | – | – | –
298.15 K, x2 = 0.9233 | 1.34416 | 1.34165 | 1.33873 | 1.33624 | – | – | – | – | –
298.15 K, x2 = 0.9253 | 1.34607 | 1.34355 | 1.3406 | 1.33811 | – | – | – | – | –
298.15 K, x2 = 0.9527 | 1.34281 | 1.34033 | 1.3374 | 1.33494 | – | – | – | – | –
298.15 K, x2 = 0.9773 | 1.33922 | 1.3368 | 1.3339 | 1.33146 | – | – | – | – | –
298.15 K, x2 = 0.989 | 1.33798 | 1.3356 | 1.3327 | 1.33028 | – | – | – | – | –
298.15 K, x2 = 0.9964 | 1.33656 | 1.3342 | 1.33128 | 1.32888 | – | – | – | – | –
